Test results taken from patent US10294202B2, “Pyrrolidinones as herbicides” (FMC Corporation, priority 2013, dated 2019).

Assays:
giant foxtail = assay: Test A pre-/postemergence herbicide test; format: in vivo, Setaria faberii
Summary of the method: (§1)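 Formulated compound (non-phytotoxic solvent, surfactant) sprayed pre- onto soil of seeded loam/sand pots or post- onto seedlings at 1–2 leaves; ~10 d greenhouse; 0–100 visual control rating versus untreated.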

pigweed = assay: Test A pre-/postemergence herbicide test; format: in vivo, Amaranthus retroflexus
Summary of the method: as §1

wheat = assay: Test A pre-/postemergence herbicide test; format: in vivo, Triticum aestivum; settings: Postemergence
Summary of the method: as §1

sedge, umbrella = assay: Test B flooded paddy test; format: in vivo, Cyperus difformis; settings: 500 g ai/ha, Flood; scale of 0 to 100 where 0 is no effect and 100 is complete control
Summary of the method: (§2)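 Plants grown to 2-leaf stage; pots flooded 3 cm above soil and compound applied directly into paddy water, depth held throughout. Visual rating against untreated controls after 13 to 15 days in greenhouse, 0 (no effect) to 100 (complete control).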

ducksalad = assay: Test B flooded paddy test; format: in vivo, Heteranthera limosa; settings: 500 g ai/ha, Flood; scale of 0 to 100 where 0 is no effect and 100 is complete control
Summary of the method: as §2

wheat (winter wheat) = assay: Test C pre-/postemergence herbicide test; format: in vivo, Triticum aestivum; settings: Preemergence; for Plant response rating, Wheat: scale 0 to 100
Summary of the method: (§3)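 Compound solutions contained surfactant in a non-phytotoxic solvent. These were sprayed onto pots of loam/sand sown with seeds, and onto young plants (2 to 18 cm, 1- to 4-leaf) in sphagnum peat–vermiculite mix. Visual injury scores (0 none, 100 complete control) were recorded after 13 to 15 days.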

nutsedge, yellow = assay: Test C pre-/postemergence herbicide test; format: in vivo, Cyperus esculentus; settings: Preemergence; for Plant response rating (scale of 0 to 100), Nutsedge, Yellow: 250 g ai/ha
Summary of the method: as §3

ragweed = assay: Test C pre-/postemergence herbicide test; format: in vivo, Ambrosia elatior; settings: Preemergence
Excerpt: (§4) Seeds of plant species selected from blackgrass (Alopecurus myosuroides), ryegrass, Italian (Italian ryegrass, Lolium multiflorum), wheat (winter wheat, Triticum aestivum), galium (catchweed bedstraw, Galium aparine), corn (Zea mays), crabgrass, large (large crabgrass, Digitaria sanguinalis), foxtail, giant (giant foxtail, Setaria faberii), johnsongrass (Sorghum halepense), lambsquarters (Chenopodium album), morningglory (Ipomoea coccinea), nutsedge, yellow (yellow nutsedge, Cyperus esculentus), pigweed (Amaranthus retroflexus), ragweed (common ragweed, Ambrosia elatior), soybean (Glycine max), barnyardgrass (Echinochloa crus-galli), oilseed rape (Brassica napus), waterhemp (common waterhemp, Amaranthus rudis), kochia (Kochia scoparia), oat, wild (wild oat, Avena fatua), surinam grass (Brachiaria decumbens), foxtail, green (green foxtail, Setaria viridis), goosegrass (Eleusine indica), bromegrass, downy (downy bromegrass, Bromus tectorum), nightshade (eastern black nightshade, Solanum ptycanthum), cocklebur (common cocklebur, Xanthium strumarium), cupgrass, woolly (woolly cupgrass, Eriochloa villosa), bermudagrass (Cynodon dactylon), sunflower, (common oilseed sunflower, Helianthus annuus), Russian thistle (Salsola kali) and velvetleaf (Abutilon theophrasti) were planted into a blend of loam soil and sand and treated preemergence with test chemicals formulated in a non-phytotoxic solvent mixture which included a surfactant. At the same time, plants selected from these crop and weed species and also barley (winter barley, Hordeum vulgare), […]), chickweed (common chickweed, Stellaria media), deadnettle (henbit deadnettle, Lamium amplexicaule), and canarygrass (littleseed canarygrass, Phalaris minor) were planted in pots containing Redi-Earth® planting medium (Scotts Company, 14111 Scottslawn Road, Marysville, Ohio 43041) comprising spaghnum peat moss, vermiculite, wetting agent and starter nutrients and treated with postemergence applications of test chemicals formulated in the same manner. Plants ranged in height from 2 to 18 cm (1- to 4-leaf stage) for postemergence treatments. Treated plants and controls were maintained in a greenhouse for 13 to 15 days, after which time all species were compared to controls and visually evaluated. Plant response ratings, summarized in Table C, are based on a scale of 0 to 100 where 0 is no effect and 100 is complete control. A dash (-) response means no test result.

soybean = assay: Test C pre-/postemergence herbicide test; format: in vivo, Glycine max; settings: Preemergence
Summary of the method: as §3

oilseed rape = assay: Test C pre-/postemergence herbicide test; format: in vivo, Brassica napus; settings: Preemergence; for Plant response rating (scale of 0 to 100), Oilseed Rape: 250 g ai/ha
Excerpt: as §4

waterhemp = assay: Test C pre-/postemergence herbicide test; format: in vivo, Amaranthus rudis; settings: Preemergence
Summary of the method: as §3

[1] = Postemergence, 125 g ai/ha, visual rating on 0 to 100 scale (0 no effect, 100 complete control), approx. 10 days
[2] = Postemergence, 500 g ai/ha, 0 to 100 scale (0 no effect, 100 complete control)
[3] = Preemergence, 125 g ai/ha, 0 to 100 scale where 0 is no effect and 100 is complete control
[4] = Preemergence, 500 g ai/ha, visual rating on 0 to 100 scale (0 no effect, 100 complete control)
[5] = 125 g ai/ha, visual rating on 0 to 100 scale (0 no effect, 100 complete control), approx. 10 days
[6] = 500 g ai/ha, 0 to 100 scale (0 no effect, 100 complete control)
[7] = 62 g ai/ha, scale 0 to 100 (0 no effect, 100 complete control)
[8] = 31 g ai/ha, scale 0 to 100, 0 is no effect and 100 is complete control
[9] = preemergence, 500 g ai/ha, 0 to 100 scale, 0 is no effect and 100 is complete control
[10] = 125 g ai/ha, scale 0 to 100 (0 no effect, 100 complete control)

SMILES | Plant response rating, Foxtail, Giant (giant foxtail; [1]) | Plant response rating, Foxtail, Giant (giant foxtail; [2]) | Plant response rating, Foxtail, Giant (giant foxtail; [3]) | Foxtail, Giant plant response rating (giant foxtail; [4]) | Plant response rating, Pigweed (pigweed; [1]) | Plant response rating, Pigweed (pigweed; [2]) | Plant response rating, Pigweed (pigweed; [3]) | Pigweed plant response rating (pigweed; [4]) | Plant response rating, Wheat (wheat; [5]) | Plant response rating, Wheat (wheat; [6]) | Plant response rating, Sedge, Umbrella (sedge, umbrella) | Plant response rating, Ducksalad (ducksalad) | Wheat plant response rating (wheat (winter wheat); [7]) | Nutsedge, Yellow plant response rating (nutsedge, yellow; [7]) | Plant response rating (scale of 0 to 100), Nutsedge, Yellow (nutsedge, yellow) | Ragweed plant response rating (ragweed; [7]) | Soybean plant response rating (soybean; [7]) | Oilseed Rape plant response rating (oilseed rape; [7]) | Plant response rating (scale of 0 to 100), Oilseed Rape (oilseed rape) | Waterhemp plant response rating (waterhemp; [7]) | other results
CC(C)c1cccc(C2CNC(=O)C2C(=O)Nc2cccc(F)c2F)c1 (stereo not drawn) [Compound 319] | 50 | 90 | 90 | 90 | 0 | 20 | 0 | 20 | 20 | 50 | 0 | 100 | 0 | 0 | 30 | 15 | 0 | 5 | 65 | 35 | Plant response rating, Wheat (wheat (winter wheat); 125 g ai/ha): 10; Nutsedge, Yellow plant response rating (nutsedge, yellow; [8]): 0; Plant response rating, Nutsedge, Yellow (nutsedge, yellow; 125 g ai/ha, scale 0 to 100): 0; Plant response rating, Ragweed (ragweed; 125 g ai/ha, scale 0 to 100): 40; Plant response rating, Soybean (soybean; 125 g ai/ha, scale 0 to 100): 0; Oilseed Rape plant response rating (oilseed rape; [8]): 0; Plant response rating, Oilseed Rape (oilseed rape; 125 g ai/ha, scale 0 to 100): 60; Plant response rating, Waterhemp (waterhemp; 125 g ai/ha, scale 0 to 100): 35
O=C1NCC(c2ccc(OC(F)F)cc2)C1C(=O)Nc1cccc(F)c1F (racemic) [Compound 350] | 80 | 90 | 90 | 90 | 20 | – | 50 | 80 | 20 | – | 0 | 100 | 0 | 0 | 0 | 0 | 0 | 70 | 85 | 50 | Plant response rating, Wheat (wheat (winter wheat); 125 g ai/ha): 0; Plant response rating, Wheat (wheat (winter wheat); 31 g ai/ha): 0; Plant response rating, Nutsedge, Yellow (nutsedge, yellow; 125 g ai/ha, scale 0 to 100): 0; Plant response rating, Nutsedge, Yellow (nutsedge, yellow; 31 g ai/ha, scale 0 to 100): 0; Plant response rating, Ragweed (ragweed; 125 g ai/ha, scale 0 to 100): 5; Plant response rating, Ragweed (ragweed; 31 g ai/ha, scale 0 to 100): 0; Plant response rating, Soybean (soybean; 125 g ai/ha, scale 0 to 100): 0; Plant response rating, Soybean (soybean; 31 g ai/ha, scale 0 to 100): 0; Plant response rating, Oilseed Rape (oilseed rape; 125 g ai/ha, scale 0 to 100): 80; Plant response rating, Oilseed Rape (oilseed rape; 31 g ai/ha, scale 0 to 100): 5; Plant response rating, Waterhemp (waterhemp; 125 g ai/ha, scale 0 to 100): 90; Plant response rating, Waterhemp (waterhemp; 31 g ai/ha, scale 0 to 100): 0
O=C1NCC(c2cc(F)cc(F)c2)C1C(=O)Nc1ccccc1Cl (racemic) [Compound 280] | – | 80 | 90 | – | 0 | 0 | 0 | – | 0 | 0 | 0 | 100 | 0 | 0 | 100 | 0 | 5 | 30 | 0 | 65 | Plant response rating, Foxtail, Giant (giant foxtail; Postemergence, 125 g ai/ha, 0 to 100 scale, 0 is no effect, 100 is complete control): 70; Plant response rating, Foxtail, Giant (giant foxtail; [9]): 90; Plant response rating, Pigweed (pigweed; [9]): 0; Wheat plant response rating (wheat (winter wheat); [8]): 0; Plant response rating (scale of 0 to 100), Wheat (wheat (winter wheat); 250 g ai/ha): 0; Nutsedge, Yellow plant response rating (nutsedge, yellow; [8]): 0; Plant response rating, Nutsedge, Yellow (nutsedge, yellow; [10]): 0; Ragweed plant response rating (ragweed; [8]): 0; Plant response rating, Ragweed (ragweed; [10]): 0; Plant response rating (scale of 0 to 100), Ragweed (ragweed; 250 g ai/ha): 60; Soybean plant response rating (soybean; [8]): 0; Plant response rating, Soybean (soybean; [10]): 0; Plant response rating (scale of 0 to 100), Soybean (soybean; 250 g ai/ha): 0; Oilseed Rape plant response rating (oilseed rape; [8]): 0; Plant response rating, Oilseed Rape (oilseed rape; [10]): 0; Waterhemp plant response rating (waterhemp; [8]): 0; Plant response rating, Waterhemp (waterhemp; [10]): 75; Plant response rating (scale of 0 to 100), Waterhemp (waterhemp; 250 g ai/ha): 35
